Data: the NIST ThermoML archive (doi:10.1016/j.fluid.2010.04.008)
± gives the expanded uncertainty stated by the source.

Settings: Liquid, Ebulliometric method (Recirculating still)

Q: Which results are given for C1COCCN1 [tetrahydro-1,4-oxazine]?
A: vapor or sublimation pressure (356.46 K): 22.57 ± 0.2 kPa; vapor or sublimation pressure (359.12 K): 24.96 ± 0.2 kPa; vapor or sublimation pressure (361.7 K): 27.47 ± 0.2 kPa; vapor or sublimation pressure (364.05 K): 30.02 ± 0.21 kPa; vapor or sublimation pressure (366.23 K): 32.49 ± 0.21 kPa; vapor or sublimation pressure (368.27 K): 34.95 ± 0.21 kPa; vapor or sublimation pressure (370.28 K): 37.52 ± 0.21 kPa; vapor or sublimation pressure (372.11 K): 40.01 ± 0.21 kPa; vapor or sublimation pressure (373.84 K): 42.47 ± 0.21 kPa; vapor or sublimation pressure (375.53 K): 45.01 ± 0.21 kPa; vapor or sublimation pressure (377.1 K): 47.47 ± 0.21 kPa; vapor or sublimation pressure (378.63 K): 49.95 ± 0.21 kPa; vapor or sublimation pressure (380.12 K): 52.51 ± 0.21 kPa; vapor or sublimation pressure (381.51 K): 54.94 ± 0.22 kPa; vapor or sublimation pressure (382.87 K): 57.53 ± 0.22 kPa; vapor or sublimation pressure (384.16 K): 59.98 ± 0.22 kPa; vapor or sublimation pressure (385.48 K): 62.51 ± 0.22 kPa; vapor or sublimation pressure (386.71 K): 65.04 ± 0.22 kPa; vapor or sublimation pressure (387.9 K): 67.54 ± 0.22 kPa; vapor or sublimation pressure (389.05 K): 69.99 ± 0.22 kPa; vapor or sublimation pressure (390.19 K): 72.56 ± 0.22 kPa; vapor or sublimation pressure (391.28 K): 75.03 ± 0.22 kPa; vapor or sublimation pressure (392.32 K): 77.49 ± 0.23 kPa; vapor or sublimation pressure (393.36 K): 80.02 ± 0.23 kPa; vapor or sublimation pressure (394.38 K): 82.52 ± 0.23 kPa; vapor or sublimation pressure (395.33 K): 85.07 ± 0.23 kPa; vapor or sublimation pressure (396.32 K): 87.48 ± 0.23 kPa; vapor or sublimation pressure (397.26 K): 90.03 ± 0.23 kPa; vapor or sublimation pressure (398.15 K): 92.46 ± 0.23 kPa; vapor or sublimation pressure (399.11 K): 95.07 ± 0.24 kPa; vapor or sublimation pressure (399.93 K): 97.49 ± 0.24 kPa; vapor or sublimation pressure (400.78 K): 100.01 ± 0.24 kPa; vapor or sublimation pressure (401.24 K): 101.32 ± 0.24 kPa
